Results reported in US10568827B2, “External dermal agent for reducing yellowish dullness” (Hayashibara Co., Ltd., priority 2015, dated 2020).

Molecular target: carbonyl BSA (Bos taurus, UniProt P02769)
Assay: Carbonyl protein reduction test with carbonyl BSA model (OxyBlot dot blot)
Format: biochemical, bovine
Conditions: for action of reducing carbonyl protein (carbonyl BSA): conclusion in words
Procedure: A carbonyl protein, obtained by carbonylating bovine serum albumin (termed “BSA”, hereinafter), was prepared as a carbonyl protein model (termed “carbonyl BSA”, hereinafter) and used in this experiment.
In phosphate buffered saline (termed “PBS (-)”, hereinafter) containing 100 μM of sodium hypochlorite as a carbonyl initiator was dissolved BSA to give a final concentration of 40 mg/mL, followed by keeping the resulting solution at 37° C. overnight to form carbonyl BSA, as a carbonyl protein model, used as a substance to cause skin yellowness, and removing the remaining sodium hypochlorite with “AMICON ULTRA 10K”, a product name of ultrafiltration membrane, commercialized by Merck Millipore Corporation, Tokyo, Japan, to obtain a carbonyl BSA. In this experiment, the carbonyl BSA was used as a carbonyl protein model.
Based on Western blot analysis, the concentration of carbonyl BSA was assayed with dot blot method using a kit, “OxyBlot™ Protein Oxidation Detection Kit”, a product name of a kit for analyzing the oxidation level of protein, commercialized by Merck Millipore Corporation, Tokyo, Japan. The resulting measured values (emission intensity) were analyzed with “Image J”, an image processing software explored by National Institutes of Health (NIH), Maryland, USA. While, a PBS (-) solution (called “control”, hereinafter) containing carbonyl BSA, obtained similarly as in the above except for not using any of the test samples, was similarly measured as in the above, followed by determining the ratios of the measured values for those with the test samples against that of control. The results are in Table 1 and FIG. 1. […] The numerals in the table respectively show the ratios of carbonyl BSA when the test samples were respectively used alone against the measured value of carbonyl BSA, regarded as 1, for Control with no addition of any of the test samples.
The results are respectively in Tables 2 and 3 and FIGS. 2 and 3. The numerals with no symbol “%” in each table show ratios of carbonyl BSA obtained in such a manner of calculating the amount of carbonyl BSA for the system with either or both of the test samples that were respectively used alone or used in combination while regarding as one the amount of carbonyl BSA in each control system with no addition of any of the compositions containing glycosyl hesperetin or glycosyl naringenin.
Except for using any one of mannose, N-acetylglucosamine, “MALTOSE HHH” as a product name of maltose, raffinose, maltotetraose, and “TORNARE®” as a product name of glycosyl trehalose used as a cosmetic base material, which are shown in Table 4 below, in place of the composition containing glycosyl naringenin and the ascorbic acid 2-glucoside used in the above (4), and preparing it into a solution containing 0.1 w/v % of any of the above saccharide for use as a test solution for carbonyl protein reduction test, it was examined the carbonyl protein reduction action of the combination use the composition containing glycosyl hesperetin and any one of the above-identified saccharides similarly as in the above (4).
This experiment was conducted with organic acids and amino acids, which were focused on as compounds to be used with the composition containing glycosyl hesperetin.

[1] = test—3, composition containing glycosyl hesperetin (0.1 w/v %) in combination with the labelled organic acid or amino acid (0.1 w/v % as headed)
[2] = test—3, sole use of organic acid or amino acid (0.1 w/v % as headed), Control = 1
[3] = test—2 (Table 5), single use 0.1 w/v %, Control = 1
[4] = test—2, combination use of composition containing glycosyl hesperetin (0.1 w/v %) and the labelled saccharide (0.1 w/v %)
[5] = sole use test, test sample 0.1 w/v %, carbonyl BSA:test sample 1:1 by mass, 37° C., 16 hours, Control (no addition) = 1

Sequence of carbonyl BSA (P02769 25-607): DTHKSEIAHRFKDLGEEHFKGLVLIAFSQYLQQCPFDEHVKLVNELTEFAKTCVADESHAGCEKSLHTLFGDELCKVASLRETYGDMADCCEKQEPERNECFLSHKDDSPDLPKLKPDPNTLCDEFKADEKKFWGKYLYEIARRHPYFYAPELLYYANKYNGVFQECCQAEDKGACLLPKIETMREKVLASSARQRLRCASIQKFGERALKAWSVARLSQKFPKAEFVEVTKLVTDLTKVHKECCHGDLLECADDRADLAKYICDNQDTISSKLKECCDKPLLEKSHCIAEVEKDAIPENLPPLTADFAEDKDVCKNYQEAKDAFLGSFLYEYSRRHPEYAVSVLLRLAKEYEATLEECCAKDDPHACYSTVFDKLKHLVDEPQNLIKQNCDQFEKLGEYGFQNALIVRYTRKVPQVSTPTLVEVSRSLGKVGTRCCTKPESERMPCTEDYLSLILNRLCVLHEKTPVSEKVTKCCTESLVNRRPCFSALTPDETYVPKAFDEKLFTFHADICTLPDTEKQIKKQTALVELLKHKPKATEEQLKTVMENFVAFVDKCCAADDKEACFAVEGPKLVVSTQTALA

| Ratio of carbonyl BSA [1] | Ratio of carbonyl BSA [2] | Structure (SMILES) | other results |
| --- | --- | --- | --- |
| 0.35 | 0.89 | CC(O)C(=O)O (stereo not drawn) [A, lactic acid] | – |
| – | – | CC(=O)N[C@H]1C(O)O[C@H](CO)[C@@H](O)[C@@H]1O (stereo partly drawn) [N-Acetyl glucosamine] | Ratio of carbonyl BSA [3]: 0.48; Ratio of carbonyl BSA [4]: 0.79 |
| 0.26 | 1.04 | C/C=C/C=C/C(=O)O [I, sorbic acid] | – |
| 0.16 | 1.01 | O=C[C@H](O)[C@@H](O)[C@H](O)[C@H](O)C(=O)O [F, glucuronic acid] | – |
| – | – | OC[C@H]1O[C@H](O[C@H]2[C@H](O)[C@@H](O)[C@@H](O[C@H]3[C@H](O)[C@@H](O)[C@@H](O[C@H]4[C@H](O)[C@@H](O)C(O)O[C@@H]4CO)O[C@@H]3CO)O[C@@H]2CO)[C@H](O)[C@@H](O)[C@@H]1O (stereo partly drawn) [Maltotetraose, maltotetraose] | Ratio of carbonyl BSA [3]: 0.71; Ratio of carbonyl BSA [4]: 0.13 |
| – | – | OC[C@H]1O[C@H](OC[C@H]2O[C@H](O[C@]3(CO)O[C@H](CO)[C@@H](O)[C@@H]3O)[C@H](O)[C@@H](O)[C@@H]2O)[C@H](O)[C@@H](O)[C@H]1O [Raffinose, raffinose] | Ratio of carbonyl BSA [3]: 0.23; Ratio of carbonyl BSA [4]: 0.54 |
| 0.28 | 0.77 | N[C@@H](CCC(=O)[O-])C(=O)[O-].[Na+].[Na+] [L, sodium glutamate] | – |
| – | – | NC(=O)c1cccnc1 [Niacinamide, niacinamide, reference compound] | action of reducing carbonyl protein (carbonyl BSA): no action of reducing carbonyl protein; Ratio of carbonyl BSA [5]: 1.05 |
| – | – | O=C1O[C@H]([C@@H](O)CO)C(O)=C1O[C@H]1O[C@H](CO)[C@@H](O)[C@H](O)[C@H]1O [L-Ascorbic acid 2-glucoside, L-ascorbic acid 2-glucoside, reference compound] | Ratio of carbonyl BSA [5]: 0.73; Ratio of carbonyl BSA (test—1 (Tables 2, 3), single use, with no addition of the other ingredient, test sample 0.1 w/v %, Control = 1): 0.70 |
| 0.51 | 0.95 | O=C(O)C(O)C(O)C(=O)O (stereo not drawn) [B, tartaric acid] | – |
| – | – | OC[C@H]1O[C@H](O[C@H]2[C@H](O)[C@@H](O)C(O)O[C@@H]2CO)[C@H](O)[C@@H](O)[C@@H]1O (mixture of isomers) [Maltose, maltose] | Ratio of carbonyl BSA [3]: 0.18; Ratio of carbonyl BSA [4]: 0.11 |
| 0.32 | 0.71 | NCC(=O)O [K, glycine] | – |
| – | – | N[C@@H](CCC(=O)N[C@@H](CS)C(=O)NCC(=O)O)C(=O)O [Glutathione (reduced form), reduced glutathione, reference compound] | action of reducing carbonyl protein (carbonyl BSA): no action of reducing carbonyl protein; Ratio of carbonyl BSA [5]: 1.19 |
| 0.35 | 0.82 | COc1cc(/C=C/C(=O)O)ccc1O [E, ferulic acid] | – |
| 0.25 | 1.08 | CC(=O)O [H, acetic acid] | – |
| 0.49 | 1.07 | O=C[C@H](O)[C@H]1OC(=O)[C@@H](O)[C@H]1O [G, glucuronolactone] | – |
| 0.52 | 0.96 | O=C(O)CC(O)(CC(=O)O)C(=O)O [C, citric acid] | – |

| Structure (SMILES) | Ratio of carbonyl BSA [1] | Ratio of carbonyl BSA [2] | other results |
| --- | --- | --- | --- |
| O=C(O)c1ccccc1 [J, benzoic acid] | 0.44 | 0.95 | – |
